For test [1], the system named is A549 cells. As to the kind of experiment: Monastrol treatment of A549 cells, microscopy and time-lapse video-microscopy. The settings on record: most non-mitotic cells. The format is cell-based, human.
For test [2], the system named is A549 cells. As to the kind of experiment: Nocodazole treatment of A549 cells, immunocytochemistry. The class given is cell-based, human. To be noted: 10 μM, four hours. The source says: We also investigated the endogenous location of KOC1 and KIF11 particles on the ultrafine structure of microtubules bridging individual A549 cells by an immunocytochemical study, using affinity-purified anti-KOC1- or anti-KIF11 for primary antibody and Alexa594-labeled anti-rabbit IgG for secondary antibody (Molecular Probe) and anti-alpha-tubulin-FITC monoclonal antibody. […] Moreover, no particle was found on the residual structure between the cells. […] To further clarify the detailed mechanism by which the KOC1-KIF11 complex transports mRNAs in NSCLC cells, we have searched for other component(s) that might be interacting with KIF11. Immunoprecipitation with anti-KIF11 polyclonal antibody using a lysate of LC319 cells identified a 150-kDa protein, which was later determined to be a dynactin 1 (DCTN1; p150, glued homolog, Drosophila) by MALDI-TOF mass-spectrometric analysis. DCTN1 is the largest subunit of DCTN, which binds to the cytoplasmic motor-protein dynein and activates vesicle transport along microtubules (Holzbaur, E. L. & Tokito, M. K. Genomics 31, 398-399 (1996); Tokito, M. K. et al., Mol. Biol. Cell 7, 1167-1180 (1996)), or binds to KIF11 to probably participate in centrosome separation (Blangy, A. et al., J. Biol. Chem. 272, 19418-19424 (1997)). […]

The target in test [3] is T1, endogenous GHSR1b and NTSR1 on LC319 cells (Homo sapiens, UniProt P30989+Q92847).
T1 construct: endogenous in cells; host or cells: LC319
The test can be described thus: Receptor-ligand binding assay on LC319 cells. The protocol:
(§1) To further confirm binding of NMU-25 to the endogenous candidate receptors on the NSCLC cells, we performed receptor-ligand binding assay using the LC319 and PC-14 cells. Briefly, these cells trypsinized were seeded onto 96-well black-wall, clear-bottom microtiter plates 24 hours prior to the assay. The medium was removed and the cells were incubated with Cy5-NMU-25 with a 10-fold excess of unlabeled competitor. The plate was incubated in the dark for 24 hours at 37° C. and was scanned on the 8200 Cellular Detection System (Applied Biosystems). 8200 Analysis Software creates a digitized gray scale image, quantitates the amount of fluorescence bound on the surface of each cell, and enumerates the fluorescent cells.

Test [4] concerns the target T2, endogenous GHSR1b and NTSR1 on PC-14 cells (Homo sapiens, UniProt P30989+Q92847).
T2 construct: endogenous in cells; host or cells: PC-14
As to the kind of experiment: Receptor-ligand binding assay on PC-14 cells. The protocol:
as §1

Test [5] relates to GHSR1b. The test can be described thus: Ligand-receptor binding assay, COS-7 cells transfected with GHSR1b. Also on record: species or system human. The protocol:
(§2) To identify direct binding of NMU-25 to its candidate receptors, GHSR1a, GHSR1b and NTSR1, the following experiments were performed. The entire coding region of each receptor gene was amplified by RT-PCR using primers
(§3) The products were digested with EcoR1 and BainH1 and cloned into appropriate sites of p3XFLAG-CMV10 vector (Sigma-Aldrich Co.). COS-7 cells were transfected with GHSR1b or NTSR1 expression plasmids using FuGENE6, as described above. Transfected COS-7 cells were cultured with 0.5 μM rhodamine-labeled NMU-25 peptide (NMU-25-rhodamine: Phoenix Pharmaceuticals. Inc.) for 12 hours, washed five times in PBS(−), and fixed in 4% paraformaldehyde solution for 60 min at room temperature. Then the cells were incubated with antibodies to FLAG-tagged GHSR1a, GHSR1b, or NTSR1 proteins (Sigma-Aldrich Co.), stained with a goat anti-mouse secondary antibody conjugated to FITC (Cappel) and viewed under laser-confocal microscopy (TCS SP2 AOBS: Leica Microsystems). […]
(§4) To confirm the binding of NMU-25 to the candidate receptors, flow-cytometric analysis was performed using the same series of COS-7 cells. […] The population of cells binding to rhodamine-labeled NMU-25 was determined by flow cytometry.

Test [6] concerns FOXM1. As to the kind of experiment: Induction of FOXM1 in LC319 cells, semiquantitative RT-PCR. The format is cell-based, human. The settings on record: LC319, 100 μM, versus BSA control. The protocol: Expression of the candidate genes was additionally detected by semiquantitative RT-PCR using mRNAs isolated at 72 and 96 hours from LC319 cells treated with 1 μM NMU-25 or BSA at the time point of 0 and 48 hours.
Therefore, we chose FOXM1 for further analysis. To determine specific induction of the FOXM1 by the NMU ligand-receptor signaling, LC319 cells expressing GHSR1b and NTSR1 were cultured in the presence of NMU-25 or BSA (control) at final concentrations of 100 μM in the culture media.

In test [7] the test system is NTSR1. The test can be described thus: Ligand-receptor binding assay, COS-7 cells transfected with NTSR1. More on the design: species or system human. As to the method: as §2, §3, §4
Test [8] addresses T3, GHSR1b/NTSR1 (Homo sapiens, UniProt P30989+Q92847).
T3 construct: endogenous in cells; host or cells: LC319
As to the kind of experiment: Intracellular Ca2+ mobilization assay in LC319 cells. The class given is cell-based. The protocol:
Trypsinized LC319 cells were seeded onto poly-D-lysine coated 384-well black-wall, clear-bottom microtiter plate (1.0×10^4 cells/ml) 24 hours prior to assay. Cells were loaded for 1 hour with […] Fluo-4-AM fluorescent indicator dye in assay buffer (Hank's balanced salts solution, 20 mM HEPES, 2.5 mM probenecid), washed three times with assay buffer, and then returned to the incubator for 10 min before assay on a fluorometric imaging plate reader (FLIPR, Molecular Devices). Maximum change in fluorescence over base line was used to determine the response of the cells to the NMU-25 peptides stimulation.
In general terms: A change in cytosolic calcium serves as a functional read-out for many receptors and channels.

Test [9] has as its system COS-7 cells. As to the kind of experiment: Growth of COS-7 cells with NMU in the medium. The format is cell-based. To be noted: addition into the medium, dose-dependent.
Where [10] appears, read: COS-7, NMU-25-rhodamine 0.5 μM, 12 hours.

No end group written: not given here. Bounds are passed on as bounds.

T3 sequence (Q92847 1-289 isoform Q92847-2): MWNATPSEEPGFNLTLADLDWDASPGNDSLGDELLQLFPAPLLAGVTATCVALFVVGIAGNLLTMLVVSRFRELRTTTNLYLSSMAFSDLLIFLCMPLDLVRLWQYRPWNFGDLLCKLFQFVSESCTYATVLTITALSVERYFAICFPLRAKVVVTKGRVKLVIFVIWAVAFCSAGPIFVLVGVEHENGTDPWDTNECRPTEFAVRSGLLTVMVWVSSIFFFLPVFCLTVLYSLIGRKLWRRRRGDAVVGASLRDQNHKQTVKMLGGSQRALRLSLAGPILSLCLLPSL
T3 sequence (P30989 whole entry): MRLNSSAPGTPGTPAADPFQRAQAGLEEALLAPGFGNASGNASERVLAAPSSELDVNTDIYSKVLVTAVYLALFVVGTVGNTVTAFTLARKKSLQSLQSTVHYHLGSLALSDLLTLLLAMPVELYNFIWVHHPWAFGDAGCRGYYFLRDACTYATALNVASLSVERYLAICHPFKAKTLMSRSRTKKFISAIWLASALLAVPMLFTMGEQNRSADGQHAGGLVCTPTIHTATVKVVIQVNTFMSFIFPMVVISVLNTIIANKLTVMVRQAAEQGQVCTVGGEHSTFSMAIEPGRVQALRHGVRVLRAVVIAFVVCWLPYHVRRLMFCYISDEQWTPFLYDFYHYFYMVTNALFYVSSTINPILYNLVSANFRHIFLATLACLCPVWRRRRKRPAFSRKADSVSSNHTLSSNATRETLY

In the case of `CCOC(=O)C1=C(C)NC(=S)NC1c1cccc(O)c1` (centres unmarked) [monastrol], the “time to loss of protrusion and connection to adjacent cells, non-mitotic cells” value in [1] is no more than 2 h.

As for `COC(=O)Nc1nc2ccc(C(=O)c3cccs3)cc2[nH]1` [nocodazole], in test [2], the “effect on endogenous KOC1, KIF11 and microtubules” value is “collapse and aggregation of endogenous KOC1 and KIF11, along with the depolymerization of microtubules in the cytoplasm”.

In the case of “Cy5-labeled NMU-25: Cy5-labeled NMU-25 peptide (FRVDEEFQSPFASQSRGYFLFRPRN; ends and bridges not checked; also: Cy5-labeled, site not given here)”, the “binding to the cell surface” value in [3] and in test [4] was “detected binding” each time.

“NMU-25: NMU-25 peptide, ligand neuromedin U (FRVDEEFQSPFASQSRGYFLFRPRN)”: the “co-localization with FLAG-tagged GHSR1b (confocal microscopy)” value in test [5] (setting [10]) is listed as “located together on the cell membrane”. Also, the “expression of FOXM1” value in [6] is “higher expression of FOXM1”. Besides, in test [7] (setting [10]), the “co-localization with FLAG-tagged NTSR1 (confocal microscopy)” value is “located together on the cell membrane”. The “intracellular Ca2+ flux / mobilization” value in test [8] is given as “but not Ca^2+ flux”.

On to “NMU: neuropeptide neuromedin U added into the medium (FRVDEEFQSPFASQSRGYFLFRPRN)”, for which the “growth of COS-7 cells” value in test [9] is on record as “promoted the growth”.

For the compound “rhodamine-labeled NMU-25: rhodamine-labeled NMU-25 peptide (Phoenix Pharmaceuticals) (FRVDEEFQSPFASQSRGYFLFRPRN; ends and bridges not checked; also: rhodamine-labeled, site not given here)”, the “binding to surface of COS-7 cells expressing GHSR1b (flow cytometry)” value in test [5] (dose dependent) was “binding”. For the same compound, the “binding to surface of COS-7 cells expressing NTSR1 (flow cytometry)” value in test [7] (dose dependent) is reported as “binding”.

The values are drawn from patent publication US7972772B2, “KIF11 and method for diagnosing non-small cell lung cancer” (Oncotherapy Science, Inc., priority 2004, dated 2011).
